Reference: patent US20240408093A1, “HETEROBIFUNCTIONAL COMPOUNDS AND THEIR USE IN TREATING DISEASE” (HALDA THERAPEUTICS OPCO, INC., priority 2022, published 2024)
Like-named read-outs stand apart in the source and are kept apart here.

Legend:
HeLa cells (ATCC CCL-2) = assay: Cellular growth inhibition assay, HeLa cells (Example 16); assay type: cell-based; conditions: Homo sapiens, 72 hours, CellTiter-Glo 2.0
KRAS G12C = KRAS G12C (Homo sapiens, UniProt P01116, G12C); assay: KRAS G12C nucleotide exchange assay (SOS1-mediated, HTRF); assay type: biochemical; set-up: GST-tagged KRAS G12C (amino acids 2-169); conditions: 1 hr pre-incubation
Experimental: KRAS target engagement (IC50 determination) was performed using a KRAS G12C nucleotide exchange assay. Specifically, compounds were tested against KRAS G12C in 10-point concentration IC50 mode with 3-fold serial dilution at a starting concentration of 10 μM. ARS1620 was used as a control.
Briefly, GST-tagged KRAS G12C (amino acids 2-169) was mixed with anti-GST Tb antibody (1.5× solution) and 10 μL was delivered to reaction wells. Compounds were delivered using an acoustic dispenser (Echo, Labcyte) and pre-incubated with protein for 1 hr at RT. KRAS/anti-GST Tb Ab/compound mixture was incubated for 1 hour at room temperature. A 3× solution of SOS1 (amino acids 564-1049) and GTP-DY-647P1 (GTP*) was prepared in reaction buffer. A 5 μL aliquot of SOS1/GTP* solution was added to reaction wells to initiate the exchange reaction. No-SOS1 reaction or max compound concentration was used as blank. The final concentrations of KRAS G12C, SOS1, and GTP* were 30 nM, 20 nM, and 0.15 μM, respectively. SOS1 mediated exchange of GDP to GTP-DY-647P was measured using HTRF (Ex/Em=(320-75/665-7.5; 615-8.5)) using an Envision Plate Reader (Perkin Elmer). IC50 determination was performed using a Sigmoidal dose response (variable slope) equation.

[1] = tested on: HEK293 cells (ATCC CRL-1573); assay: Cellular growth inhibition assay, HEK293 cells (Example 16); assay type: cell-based; conditions: Homo sapiens, 72 hours, CellTiter-Glo 2.0
GSPT1 = assay: Payload release assay (DC50 readout), GSPT1 degradation in the presence of recombinant target protein; assay type: cell-based; conditions: I-series compounds (GSPT1 readout inferred)
Experimental: Exemplary compounds were tested for ability to cause degradation of CCNK or GSPT1 in the presence of recombinant target protein.
HEK293 LgBiT/GSPT1 HiBiT CRISPR Knock-in cells (Promega) were cultured in DMEM (Gibco 11995), supplemented with 10% Heat-inactivated FBS (Gibco A38400-01) and 1% Penicillin/Streptomycin (Gibco 15140-122) and 200 Vg/ml Hygromycin B (Gibco 10-687-010) at 37° C. with 5% CO2 in a humidified tissue culture incubator. HEK293 LgBiT/CCNK HiBiT cells (in-house, described above) were cultured in DMEM (Gibco 11995), supplemented with 10% Heat-inactivated FBS (Gibco A38400-01) and 1% Penicillin/Streptomycin (Gibco 15140-122) 200 Vg/ml Hygromycin B (Gibco 10-687-010), and 1 Vg/ml Puromycin Dihydrochloride (Thermo A1113803) at 37° C. with 5% CO2 in a humidified tissue culture incubator. Cells were seeded (1000 cells/well for HEK293 LgBiT/GSPT1 HiBiT cells or 3000 cells/well for HEK293 LgBiT/CCNK HiBiT cells) 384-well, tissue culture-treated white plates (Perkin Elmer 6007680) in 10 μL media lacking selection for 18-24 hours. Plates were spun at 300 g for 30 seconds and stored in the incubator overnight. After 24 hours, a 5 μL aliquot of recombinant target protein (final concentration of either 5 μM KRAS amino acids 1-169, C51S, C80L, C118S, G12C or 3 μM EGFR amino acids 696-1022 or 3 μM EGFR amino acids 696-1022, T790M, L858R) was added to wells, followed immediately by a 5 μL aliquot of 4× compound-containing medium supplemented with Endurazine Substrate (Promega N2570) was added in each well, at a final top concentration of 10 μM test compound and 0.5× Endurazine, with 4-fold dilutions, using DMSO alone as a negative control. Plates were then spun at 300×g for 3 minutes again and cultured at 37° C. with 5% CO2. After 6 hours the plate was read on Envision MultiMode Plate Reader 2105 (Perkin Elmer) to measure luminescence signal. Data was normalized to DMSO treated cell wells. A four-parameter non-linear regression curve fit was applied to dose-response data in Prism to determine the half maximal growth inhibitory concentration (GI50) of each compound.

[2] = 0 μM recombinant KRAS G12C, read-out: DC50 at 0 μM KRAS G12C
[3] = 5 μM recombinant KRAS G12C, read-out: DC50 at 5 μM KRAS G12C

Chain of KRAS G12C (P01116 2-169 isoform P01116-2 G12C): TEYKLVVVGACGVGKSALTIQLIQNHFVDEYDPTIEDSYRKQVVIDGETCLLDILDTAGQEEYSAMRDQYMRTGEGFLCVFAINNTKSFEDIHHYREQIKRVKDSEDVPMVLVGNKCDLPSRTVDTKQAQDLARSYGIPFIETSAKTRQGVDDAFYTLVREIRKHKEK

| Structure (SMILES) | GI50 (HeLa cells (ATCC CCL-2)) [µM] | IC50 (KRAS G12C) [µM] | GI50 [1] [µM] | DC50 (GSPT1; [2]) [µM] | DC50 (GSPT1; [3]) [µM] |
| --- | --- | --- | --- | --- | --- |
| C=C(CN1CCN(c2nc(NCc3nc4cc(C)ccc4[nH]3)n3ncc(Br)c3n2)CC1)C(=O)N1CCN(c2nc(OC[C@@H]3CCCN3C)nc3c2CCN(c2cccc4cccc(Cl)c24)C3)C[C@@H]1CC#N [II-190] | < 0.5 | < 0.1 | < 0.5 |  |  |
| C=C(COc1ccccc1NC(=O)NCc1ccc2c(c1)CN(C1CCC(=O)NC1=O)C2=O)C(=O)N1CCN(c2nc(OC[C@H]3CCCN3C)nc3c2CCN(c2cccc4cccc(Cl)c24)C3)C[C@H]1CC#N (stereo partly drawn) [Compound I-80] |  | < 0.1 | > 10 | 0.25 to 5 | < 0.25 |
| C=C(COc1cc(Cl)c(OC)cc1NC(=O)NCc1ccc2c(c1)CN(C1CCC(=O)NC1=O)C2=O)C(=O)N1CC2(CC(n3nc(-c4ccc5c(cnn5C)c4)c(-c4c(Cl)c(C)cc5[nH]ncc45)c3C)C2)C1 (stereo not drawn) [Compound I-66] | 0.5 to 1.5 | 0.1 to 5 | < 0.5 | < 0.25 | < 0.25 |
| C=C(COc1cc(Cl)cc(NC(=O)NCc2ccc3c(c2)CN(C2CCC(=O)NC2=O)C3=O)c1)C(=O)N1CCN(c2nc(OC[C@@H]3CCCN3C)nc3c2CCN(c2cccc4cccc(Cl)c24)C3)C[C@@H]1CC#N (stereo partly drawn) [Compound I-35] | 1.5 to 10 | < 0.1 | 1.5 to 10 | 0.25 to 5 | < 0.25 |
| C=C(COc1cc(Cl)cc(NC(=O)NCc2ccc3c(c2)CN(C2CCC(=O)NC2=O)C3=O)c1)C(=O)N1CC2(CC(n3nc(-c4ccc5c(cnn5C)c4)c(-c4c(Cl)c(C)cc5[nH]ncc45)c3C)C2)C1 (stereo not drawn) [Compound I-56] | < 0.5 | 0.1 to 5 | 0.5 to 1.5 | < 0.25 | < 0.25 |
| C=C(COc1ccccc1CNC(=O)NCc1ccc2c(c1)CN(C1CCC(=O)NC1=O)C2=O)C(=O)N1CCN(c2nc(OC[C@@H]3CCCN3C)nc3c2CCN(c2cccc4cccc(Cl)c24)C3)C[C@@H]1CC#N (stereo partly drawn) [Compound I-63] | > 10 | < 0.1 | > 10 | > 10 | > 10 |
| C=C(COc1cc(C(F)(F)F)c(Cl)cc1NC(=O)NCc1ccc2c(c1)CN(C1CCC(=O)NC1=O)C2=O)C(=O)N1CCN(c2nc(OC[C@@H]3CCCN3C)nc3c2CCN(c2cccc4cccc(Cl)c24)C3)C[C@@H]1CC#N (stereo partly drawn) [Compound I-88] | 0.5 to 1.5 | < 0.1 | < 0.5 | < 0.25 | < 0.25 |
| C=C(COc1cc(Cl)cc(NC(=O)NCc2ccc3c(c2)CN(C2CCC(=O)NC2=O)C3=O)c1F)C(=O)N1CCN(c2nc(OC[C@@H]3CCCN3C)nc3c2CCN(c2cccc4cccc(Cl)c24)C3)C[C@@H]1CC#N (stereo partly drawn) [Compound I-84] | 1.5 to 10 | > 10 | < 0.5 | < 0.25 | < 0.25 |
| C=C(CN(C)c1cccc(NC(=O)NCc2ccc3c(c2)CN(C2CCC(=O)NC2=O)C3=O)c1)C(=O)N1CCN(c2nc(OC[C@@H]3CCCN3C)nc3c2CCN(c2cccc4cccc(Cl)c24)C3)C[C@@H]1CC#N (stereo partly drawn) [Compound I-58] | 1.5 to 10 | 5 to 10 | 1.5 to 10 | > 10 | 5 to 10 |
| C=C(COC(=O)NCCCc1cc(Cl)cc(NC(=O)NCc2ccc3c(c2)CN(C2CCC(=O)NC2=O)C3=O)c1)C(=O)N1CCN(c2nc(OC[C@@H]3CCCN3C)nc3c2CCN(c2cccc4cccc(Cl)c24)C3)C[C@@H]1CC#N (stereo partly drawn) [Compound I-74] | 1.5 to 10 | < 0.1 | 0.5 to 1.5 | 0.25 to 5 | < 0.25 |
| C=C(COc1cc(NC(=O)NCc2ccc3c(c2)CN(C2CCC(=O)NC2=O)C3=O)cc(F)c1F)C(=O)N1CCN(c2nc(OC[C@@H]3CCCN3C)nc3c2CCN(c2cccc4cccc(Cl)c24)C3)C[C@@H]1CC#N (stereo partly drawn) [Compound I-75] | > 10 | < 0.1 | > 10 | > 10 | > 10 |
| C=C(COC(=O)NCc1cc(Cl)cc(NC(=O)NCc2ccc3c(c2)CN(C2CCC(=O)NC2=O)C3=O)c1)C(=O)N1CCN(c2nc(OC[C@@H]3CCCN3C)nc3c2CCN(c2cccc4cccc(Cl)c24)C3)C[C@@H]1CC#N (stereo partly drawn) [Compound I-73] | 1.5 to 10 | < 0.1 | < 0.5 | < 0.25 | < 0.25 |
| C=C(COc1cc(NC(=O)NCc2ccc3c(c2F)CN(C2CCC(=O)NC2=O)C3=O)cc(C(F)(F)F)c1)C(=O)N1CCN(c2nc(OC[C@@H]3CCCN3C)nc3c2CCN(c2cccc4cccc(Cl)c24)C3)C[C@@H]1CC#N (stereo partly drawn) [Compound I-85] | > 10 | < 0.1 | 1.5 to 10 | 0.25 to 5 | < 0.25 |
| C=C(COC(=O)NCCc1ccc(Cl)cc1NC(=O)NCc1ccc2c(c1)CN(C1CCC(=O)NC1=O)C2=O)C(=O)N1CCN(c2nc(OC[C@@H]3CCCN3C)nc3c2CCN(c2cccc4cccc(Cl)c24)C3)C[C@@H]1CC#N (stereo partly drawn) [Compound I-78] |  | < 0.1 | > 10 | > 10 | > 10 |
| C=C(COC(=O)NCCCc1ccc(Cl)cc1NC(=O)NCc1ccc2c(c1)CN(C1CCC(=O)NC1=O)C2=O)C(=O)N1CCN(c2nc(OC[C@@H]3CCCN3C)nc3c2CCN(c2cccc4cccc(Cl)c24)C3)C[C@@H]1CC#N (stereo partly drawn) [Compound I-79] |  | < 0.1 | > 10 | 0.25 to 5 | > 10 |
| C=C(COc1cc(Cl)c(OC)cc1NC(=O)NCc1ccc2c(c1)CN(C1CCC(=O)NC1=O)C2=O)C(=O)N1CCN(c2nc(OC[C@@H]3CCCN3C)nc3c2CCN(c2cccc4cccc(Cl)c24)C3)C[C@@H]1CC#N (stereo partly drawn) [Compound I-46] | > 10 | < 0.1 | 0.5 to 1.5 | 0.25 to 5 | < 0.25 |
| C=C(COc1cc(-c2ccccn2)ccc1CNc1nc(N[C@H](CC)CO)nc2c1ncn2C(C)C)C(=O)N1CCN(c2nc(OC[C@@H]3CCCN3C)nc3c2CCN(c2cccc4cccc(Cl)c24)C3)C[C@@H]1CC#N [II-186] | 1.5 to 10 | < 0.1 | 0.5 to 1.5 |  |  |
